Our source for the melting point values is patent US20040142952A1, “Triazoloquinazoline and pyrazolotriazolopyrimidine derivatives, medicinal compositions, adenosine a3 receptor affinity agents, ocular tension lowering agents, preparations for preventing and treating glaucoma and method of lowering ocular tension” (priority 2001, published 2004).

Regarding `CCCCc1nc2nn(CC(=O)OCC)cc2c2nc(-c3ccc(F)cc3)nn12` [Example 131, ethyl 2-[5-n-butyl-2-(4-fluorophenyl)pyrazolo[4,3-e]-1,2,4-triazolo[1,5-c]pyrimidin-8-yl]acetate], the melting point (commonly the temperature, or range, at which the solid turns liquid) lay in the range of 164 to 165 °C.
With `CCCCc1nc2c(cnn2CCO)c2nc(-c3ccccc3)nn12` [Example 132, 5-n-butyl-7-(2-hydroxyethyl)-2-phenylpyrazolo[4,3-e]-1,2,4-triazolo[1,5-c]pyrimidine] the figure was 132 to 133 °C; with `CCCCc1nc2nn(CCO)cc2c2nc(-c3ccccc3)nn12` [Example 133, 5-n-butyl-8-(2-hydroxyethyl)-2-phenylpyrazolo[4,3-e]-1,2,4-triazolo[1,5-c]pyrimidine], 160.5 to 162 °C; with `CCCCc1nc2c(cnn2CCO)c2nc(-c3ccc(F)cc3)nn12` [Example 134, 5-n-butyl-2-(4-fluorophenyl)-7-(2-hydroxyethyl)pyrazolo[4,3-e]-1,2,4-triazolo[1,5-c]pyrimidine], 150.5 to 151.5 °C.
The compound `CCCCc1nc2nn(CCO)cc2c2nc(-c3ccc(F)cc3)nn12` [Example 135, 5-n-butyl-2-(4-fluorophenyl)-8-(2-hydroxyethyl)pyrazolo[4,3-e]-1,2,4-triazolo[1,5-c]pyrimidine] came in with a melting point of 202 to 203 °C.
With `CCCCc1nc2c(cnn2CCO)c2nc(-c3ccc(C)cc3)nn12` [Example 136, 5-n-butyl-7-(2-hydroxyethyl)-2-(4-methylphenyl)pyrazolo[4,3-e]-1,2,4-triazolo[1,5-c]pyrimidine] the figure was 134 to 136 °C; with `CCCCc1nc2nn(CCO)cc2c2nc(-c3ccc(C)cc3)nn12` [Example 137, 5-n-butyl-8-(2-hydroxyethyl)-2-(4-methylphenyl)pyrazolo[4,3-e]-1,2,4-triazolo[1,5-c]pyrimidine], 171 to 173 °C; with `CCCCc1nc2c(cnn2CCO)c2nc(-c3ccc(Cl)cc3)nn12` [Example 138, 5-n-butyl-2-(4-chlorophenyl)-7-(2-hydroxyethyl)pyrazolo[4,3-e]-1,2,4-triazolo[1,5-c]pyrimidine], 164 to 164.5 °C.
In turn, `CCCCc1nc2nn(CCO)cc2c2nc(-c3ccc(Cl)cc3)nn12` [Example 139, 5-n-butyl-2-(4-chlorophenyl)-8-(2-hydroxyethyl)pyrazolo[4,3-e]-1,2,4-triazolo[1,5-c]pyrimidine] registered a melting point of 189 to 190.5 °C.
As for `CCCCc1nc2c(cnn2CCO)c2nc(-c3ccc(OC)cc3)nn12` [Example 140, 5-n-butyl-7-(2-hydroxyethyl)-2-(4-methoxyphenyl)pyrazolo[4,3-e]-1,2,4-triazolo[1,5-c]pyrimidine], the figure is 147.5 to 148.5 °C.
With `CCCCc1nc2nn(CCO)cc2c2nc(-c3ccc(OC)cc3)nn12` [Example 141, 5-n-butyl-8-(2-hydroxyethyl)-2-(4-methoxyphenyl)pyrazolo[4,3-e]-1,2,4-triazolo[1,5-c]pyrimidine] the figure was 178 to 179 °C.
Take `CCCCc1nc2nn(CC)cc2c2nc(-c3ccc(OC)cc3)nn12` [Example 142, 5-n-butyl-8-ethyl-2-(4-methoxyphenyl)pyrazolo[4,3-e]-1,2,4-triazolo[1,5-c]pyrimidine]: the melting point is 127 to 128 °C.
As for `CCCCc1nc2nn(CC)cc2c2nc(-c3ccc(C)cc3)nn12` [Example 143, 5-n-butyl-8-ethyl-2-(4-methylphenyl)pyrazolo[4,3-e]-1,2,4-triazolo[1,5-c]pyrimidine], the figure is 128 to 129 °C; as for `CCCCc1nc2nn(CC)cc2c2nc(-c3ccc(F)cc3)nn12` [Example 144, 5-n-butyl-8-ethyl-2-(4-fluorophenyl)pyrazolo[4,3-e]-1,2,4-triazolo[1,5-c]pyrimidine], 146 to 147 °C; as for `CCCCc1nc2nn(CC)cc2c2nc(-c3ccc(Cl)cc3)nn12` [Example 145, 5-n-butyl-2-(4-chlorophenyl)-8-ethylpyrazolo[4,3-e]-1,2,4-triazolo[1,5-c]pyrimidine], 141 to 142 °C.
As for `CCCCc1nc2nn(CCC)cc2c2nc(-c3ccc(OC)cc3)nn12` [Example 146, 5-n-butyl-2-(4-methoxyphenyl)-8-n-propylpyrazolo[4,3-e]-1,2,4-triazolo[1,5-c]pyrimidine], the figure is 112 to 112.5 °C; as for `COc1ccc(-c2nc3c4cnnc-4nc(CCCC(=O)O)n3[nH]2)cc1` [Example 148, 4-[2-(4-methoxyphenyl)pyrazolo[4,3-e]-1,2,4-triazolo[1,5-c]pyrimidin-5-yl]butyric acid], 247.5 to 249 °C.
As for `O=C(O)CCCc1nc2nncc-2c2nc(-c3ccc(Cl)cc3)[nH]n12` [Example 149, 4-[2-(4-chlorophenyl)pyrazolo[4,3-e]-1,2,4-triazolo[1,5-c]pyrimidin-5-yl]butyric acid], the figure is 253.5 to 255.5 °C; as for `Cc1ccc(-c2nc3c4cnnc-4nc(CCCC(=O)O)n3[nH]2)cc1` [Example 150, 4-[2-(4-methylphenyl)pyrazolo[4,3-e]-1,2,4-triazolo[1,5-c]pyrimidin-5-yl]butyric acid], 249 to 251 °C.
Compound `CCCCc1nc2c(cnn2CC(=O)O)c2nc(-c3ccccc3)nn12` [Example 151, 2-(5-n-butyl-2-phenylpyrazolo[4,3-e]-1,2,4-triazolo[1,5-c]pyrimidin-7-yl)acetic acid] registered a melting point of 271 to 272.5 °C.
On to `CCCCc1nc2nn(CC(=O)O)cc2c2nc(-c3ccccc3)nn12` [Example 152, 2-(5-n-butyl-2-phenylpyrazolo[4,3-e]-1,2,4-triazolo[1,5-c]pyrimidin-8-yl)acetic acid], for which the melting point was > 281 °C (dec.).
With `O=C(O)CCCc1nc2ccccc2c2nc(-c3ccccc3)nn12` [Example 153, 4-(2-phenyl-1,2,4-triazolo[1,5-c]quinazolin-5-yl)butyric acid] the figure was 211 to 211.5 °C; with `O=C(O)CCCc1nc2ccccc2c2nc(-c3ccc(Br)cc3)nn12` [Example 154, 4-[2-(4-bromophenyl)-1,2,4-triazolo[1,5-c]quinazolin-5-yl]butyric acid], 219 to 220 °C.
As for `O=C(O)CCCc1nc2ccccc2c2nc(-c3ccc(F)cc3)nn12` [Example 155, 4-[2-(4-fluorophenyl)-1,2,4-triazolo[1,5-c]quinazolin-5-yl]butyric acid], the figure is 225 to 226 °C.
With `O=C(O)CCCc1nc2ccccc2c2nc(-c3ccc(Cl)cc3)nn12` [Example 156, 4-[2-(4-chlorophenyl)-1,2,4-triazolo[1,5-c]quinazolin-5-yl]butyric acid] the figure was 227 to 228 °C; with `CCCCCc1nc2ccccc2c2nc(-c3ccc(O)cc3)nn12` [Example 157, 2-(4-hydroxyphenyl)-5-n-pentyl-1,2,4-triazolo[1,5-c]quinazoline], 214 to 215 °C.
